SMILES strings stand for the structures. Several values for one entry are separate records, joined by “and”; a condition that tells them apart may be missing. Equal entries are not always repeated. Toxic doses and inconclusive results are not listed.

This experiment deals with BDF1 mice, P388 leukemia ip, median survival T/C. As to the kind of experiment: NCI In Vivo Anticancer Drug Screen. Data for tumor model P388 Leukemia (intraperitoneal) in B6D2F1 (BDF1) mice. The settings on record: endpoint: median survival time, higher = longer survival. An outline of the steps:
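Mice carrying the transplantable tumour receive compound or vehicle. Survival is followed in each arm, and the treated measure is divided by the vehicle measure.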

The mark [1] stands for this setting: dose: 100.0 mg/kg/injection, schedule: Q04DX003 (ip), vehicle: saline with Tween-80.
Setting [2] is: dose: 200.0 mg/kg/injection, schedule: Q04DX003 (ip), vehicle: saline with Tween-80.
[3] abbreviates: dose: 400.0 mg/kg/injection, schedule: Q04DX003 (ip), vehicle: saline with Tween-80.
[4] abbreviates: dose: 12.5 mg/kg/injection, schedule: Q04DX003 (ip), vehicle: water.
Where [5] appears, read: dose: 25.0 mg/kg/injection, schedule: Q04DX003 (ip), vehicle: water.
The mark [6] stands for this setting: dose: 50.0 mg/kg/injection, schedule: Q04DX003 (ip), vehicle: water.
The mark [7] stands for this setting: dose: 100.0 mg/kg/injection, schedule: Q01DX009 (ip), vehicle: Klucel (hydroxypropylcellulose) (HPC).
Setting [8] is: dose: 100.0 mg/kg/injection, schedule: Q04DX003 (ip), vehicle: Klucel (hydroxypropylcellulose) (HPC).
The mark [9] stands for this setting: dose: 200.0 mg/kg/injection, schedule: Q01DX009 (ip), vehicle: Klucel (hydroxypropylcellulose) (HPC).
Where [10] appears, read: dose: 200.0 mg/kg/injection, schedule: Q04DX003 (ip), vehicle: Klucel (hydroxypropylcellulose) (HPC).
Setting [11] is: dose: 400.0 mg/kg/injection, schedule: Q01DX009 (ip), vehicle: Klucel (hydroxypropylcellulose) (HPC).
Setting [12] is: dose: 400.0 mg/kg/injection, schedule: Q04DX003 (ip), vehicle: Klucel (hydroxypropylcellulose) (HPC).
Setting [13] is: dose: 6.25 mg/kg/injection, schedule: Q01DX009 (ip), vehicle: saline with Tween-80.
Setting [14] is: dose: 25.0 mg/kg/injection, schedule: Q04DX003 (ip), vehicle: Klucel (hydroxypropylcellulose) (HPC).
Where [15] appears, read: dose: 50.0 mg/kg/injection, schedule: Q04DX003 (ip), vehicle: Klucel (hydroxypropylcellulose) (HPC).
Setting [16] is: dose: 50.0 mg/kg/injection, schedule: Q01DX009 (ip), vehicle: saline with Tween-80.
[17] abbreviates: dose: 100.0 mg/kg/injection, schedule: Q01DX009 (ip), vehicle: saline with Tween-80.
The mark [18] stands for this setting: dose: 200.0 mg/kg/injection, schedule: Q01DX009 (ip), vehicle: saline with Tween-80.

`C=CC(CN1CC1)OC(C)=O` (stereo not given): the T/C reads like this: (dose: 2.0 mg/kg/injection, schedule: Q01DX010 (ip), vehicle: saline) 112 % of control; (dose: 4.0 mg/kg/injection, schedule: Q01DX010 (ip), vehicle: saline) 163 % of control; (dose: 8.0 mg/kg/injection, schedule: Q01DX010 (ip), vehicle: saline) 181 % of control; (dose: 16.0 mg/kg/injection, schedule: Q01DX010 (ip), vehicle: saline) 166 % of control.
`CC1=CC(=NN=c2cc(C)n([O-])c(C)c2)C=C(C)[N+]1=O`: where the note is “dose: 12.5 mg/kg/injection, schedule: Q01DX010 (ip), vehicle: saline”, the T/C is 91 % of control and 104 % of control and 114 % of control.
On to `N/C(=N\OS(=O)(=O)c1ccccc1)OC1CCCCC1`, for which the T/C under setting [1] was 99 % of control, the T/C under setting [2] is 98 % of control and the T/C under setting [3] is 98 % of control.
For the compound `CN(C)c1ccc2cc3ccc(N(C)C)cc3nc2c1`, the T/C is 93 % of control (dose: 3.12 mg/kg/injection, schedule: Q04DX003 (ip), vehicle: water); 106 % of control (dose: 6.25 mg/kg/injection, schedule: Q04DX003 (ip), vehicle: water); 99 % of control under setting [4]; 109 % of control under setting [5]; 115 % of control under setting [6].
`CCOC(=O)CCN(CCC(=O)OCC)C(C)C`: the T/C is 100 % of control under setting [1], 100 % of control under setting [2] and 100 % of control under setting [3].
As for `CCOC(=O)CC(=Nc1ccccc1OC)C(=O)OCC`, the T/C was 86 % of control under setting [7]; 104 % of control under setting [8]; 86 % of control under setting [9]; 95 % of control under setting [10]; 104 % of control under setting [11]; 95 % of control under setting [12].
For `Nc1nc(N)nc(N)n1`, the T/C is, setting by setting: under setting [7], 90 % of control; under setting [9], 90 % of control; under setting [11], 100 % of control; (dose: 800.0 mg/kg/injection, schedule: Q01DX009 (ip), vehicle: Klucel (hydroxypropylcellulose) (HPC)) 100 % of control; (dose: 2000.0 mg/kg/injection, schedule: Q01DX009 (ip), vehicle: Klucel (hydroxypropylcellulose) (HPC)) 95 % of control.
`O=C(CCN1CCCCC1)c1ccc(C(F)(F)F)cc1`: the T/C (dose: 0.39 mg/kg/injection, schedule: Q01DX009 (ip), vehicle: saline) was 100 % of control and 116 % of control; the T/C (dose: 0.78 mg/kg/injection, schedule: Q01DX009 (ip), vehicle: saline) is 102 % of control and 116 % of control; the T/C (dose: 1.56 mg/kg/injection, schedule: Q01DX009 (ip), vehicle: saline) was 100 % of control; the T/C under setting [13] is 99 % of control.
With `O=C1N/C(=N\c2nc3ccccc3s2)c2ccccc21`, the T/C (dose: 3.13 mg/kg/injection, schedule: Q01DX009 (ip), vehicle: saline with Tween-80) was 90 % of control; the T/C under setting [13] was 92 % of control; the T/C (dose: 12.5 mg/kg/injection, schedule: Q01DX009 (ip), vehicle: saline with Tween-80) is 92 % of control.
Regarding `CSc1nc(N)c2c(C(N)=O)cc(=O)[nH]c2n1`, the T/C is, setting by setting: (dose: 100.0 mg/kg/injection, schedule: Q04DX002 (ip), vehicle: saline with Tween-80) 101 % of control; (dose: 200.0 mg/kg/injection, schedule: Q04DX002 (ip), vehicle: saline with Tween-80) 90 % of control.
`O=C1N(Cl)C(=O)C(c2ccccc2)(c2ccc(F)cc2)N1Cl` (stereo not given): the T/C runs as follows: under setting [14], 87 % of control; under setting [15], 100 % of control; under setting [8], 91 % of control.
For the compound `CCCC[N+](CCCC)(CCCC)CCCC.Cc1ccc([SH2+])c([SH2+])c1.Cc1ccc([SH2+])c([SH2+])c1.[Fe+3]`, the T/C is 109 % of control (dose: 45.0 mg/kg/injection, schedule: Q04DX003 (ip), vehicle: Klucel (hydroxypropylcellulose) (HPC)); 118 % of control (dose: 65.0 mg/kg/injection, schedule: Q04DX003 (ip), vehicle: Klucel (hydroxypropylcellulose) (HPC)); 112 % of control (dose: 100.0 mg/kg/injection, schedule: Q01DX001 (ip), vehicle: other); 118 % of control (dose: 150.0 mg/kg/injection, schedule: Q04DX003 (ip), vehicle: Klucel (hydroxypropylcellulose) (HPC)); 112 % of control (dose: 200.0 mg/kg/injection, schedule: Q01DX001 (ip), vehicle: other); 90 % of control and 120 % of control under setting [10]. Besides, the T/C (dose: 400.0 mg/kg/injection, schedule: Q01DX001 (ip), vehicle: other) was 108 % of control and the T/C under setting [12] is 120 % of control.
In the case of `C=CCCCCCC/C=C\CCCCC`, under “dose: 50.0 mg/kg/injection, schedule: Q01DX010 (ip), vehicle: alcohol”, the T/C was 104 % of control.
`COc1cc2c(cc1OC)C(c1ccc(N=Cc3ccc(N(C)C)cc3)cc1)N(C(=S)Nc1cc(Cl)ccc1Cl)CC2` (stereo not given): the T/C by setting is: (dose: 25.0 mg/kg/injection, schedule: Q01DX009 (ip), vehicle: saline with Tween-80) 97 % of control; under setting [16], 93 % of control and 97 % of control; under setting [17], 95 % of control; under setting [18], 89 % of control.
As to `CCOC(=O)Cn1nc(-c2ccc([N+](=O)[O-])o2)oc1=O`, the T/C by setting is: under setting [16], 97 % of control; under setting [17], 95 % of control; under setting [18], 103 % of control.
For `N#CC1C(=O)NC(=O)C(C#N)C12CCCCC2` (stereo not given), the T/C (dose: 50.0 mg/kg/injection, schedule: Q01DX005 (ip), vehicle: saline with Tween-80) is 100 % of control; the T/C (dose: 50.0 mg/kg/injection, schedule: Q04DX003 (ip), vehicle: saline with Tween-80) is 110 % of control; the T/C (dose: 100.0 mg/kg/injection, schedule: Q01DX005 (ip), vehicle: saline with Tween-80) is 100 % of control; the T/C under setting [1] is 120 % of control; the T/C (dose: 200.0 mg/kg/injection, schedule: Q01DX005 (ip), vehicle: saline with Tween-80) is 109 % of control; the T/C under setting [2] is 105 % of control.
Turning to `O=C(Nc1ccc(C(=O)Nc2ccc(C3=NCCCN3)cc2)cc1)Nc1ccc(C2=NCCCN2)cc1`, the T/C (dose: 16.5 mg/kg/injection, schedule: Q04DX003 (ip), vehicle: saline with Tween-80) is 122 % of control and 204 % of control; the T/C (dose: 25.0 mg/kg/injection, schedule: Q04DX003 (ip), vehicle: saline with Tween-80) was 245 % of control and 163 % of control; the T/C (dose: 37.5 mg/kg/injection, schedule: Q04DX003 (ip), vehicle: saline with Tween-80) was 159 % of control and 186 % of control.
As for `O=C(CCNC(=O)OCc1ccccc1)NC(CSCc1ccccc1)C(=O)O` (stereo not given), the T/C is, setting by setting: under setting [4], 112 % of control; under setting [5], 118 % of control; under setting [6], 114 % of control; (dose: 100.0 mg/kg/injection, schedule: Q04DX003 (ip), vehicle: water) 105 % of control; (dose: 200.0 mg/kg/injection, schedule: Q04DX003 (ip), vehicle: water) 103 % of control.
As for `CCN(CC)CCCC#CCN1CCCCC1`, the T/C (dose: 25.0 mg/kg/injection, schedule: Q01DX009 (ip), vehicle: Klucel (hydroxypropylcellulose) (HPC)) was 100 % of control; the T/C under setting [14] is 91 % of control; the T/C (dose: 50.0 mg/kg/injection, schedule: Q01DX009 (ip), vehicle: Klucel (hydroxypropylcellulose) (HPC)) was 90 % of control; the T/C under setting [15] was 91 % of control; the T/C under setting [7] is 100 % of control; the T/C under setting [8] was 91 % of control.

For the origin of these results see PubChem BioAssay AID328 (DTP/NCI, 2004).
